Measured values: patent publication US20230145868A1, “UREA INHIBITORS OF MICRO-RNA” (Board of Regents, The University of Texas System, priority 2020, published 2023)

Experiments:
miR-10b [1] = test: Luciferase reporter assay of miR-10b inhibition, MDA-MB-231 cells; format: cell-based; conditions: Homo sapiens, MDA-MB-231, 48 h
Description: (§1) To identify miR-10b inhibitors, a luciferase reporter system was designed with complementary oligonucleotides for miR-10b.This luciferase reporter would repress Renilla luciferase signal in the presence of a functional mature miR-10b. However, in the presence of a small molecule that can inhibit mature miR-10b expression or affect its downstream function, the luciferase expression is restored again.
(§2) The PsiCHECK™-2 luciferase reporter vector was acquired from Promega™, Complementary oligonucleotides for hsa-miR-10b were designed based on the mature miRNA sequence and obtained from Thermo Fisher Scientific. In the design of the microRNA target sequence, several base pairs were added to have two different restriction sites recognizable by the enzyme SgfI at one side, and PmeI on the other (present in the vector as well). In addition, the insert was designed with a restriction site for SacI enzyme in order to have an additional site to digest the vector when monitoring colonies for the presence/absence of the insert. The designed oligonucleotides were annealed as follows: Complementary strands were mixed at a 1:1 molar ratio in a micro centrifuge tube. The mixture was diluted to a final concentration of 1 pmol/μl with a buffer solution of 10 mM Tris, 1 mM EDTA, and 50 mM NaCl (pH 8.0). Mixes were incubated at 95° C. for 5 min, and then the heat was reduced gradually for 70 min, until reaching 4° C. The annealed oligonucleotides were digested along with the PsiCHECK™2 vector with SgfI and PmeI and ligated at the 3′-UTR (downstream) of the Renilla luciferase reporter gene in the PsiCHECK™-2vector. Insert sequences were further confirmed in two ways: enzymatic digestion and sequencing.
(§3) MCF7 cells were seeded 24 h prior to transfection in 96 well plates (2.0×10^4 cells/well). For testing the sensitivity of the assay, antagomiRs and pre-miRs against miR-10b were used at a final concentration of 100 nM. For testing small molecule miRNA inhibitors, the compounds of interest were added to a final concentration of 10 μM. The assay was done in MCF7 or MDA-MB-231 cells at approximately 60% confluence using Lipofectamine in Opti-Mem media with the final vector concentration of 250 ng/mL. All transfections were performed in triplicate for statistical analysis. The cells were incubated at 37° C. for 6 h, followed by replacement of the transfected media with fresh media. After 48 h incubation, the media was removed, and cells were lysed and assayed with a Dual Luciferase Assay Kit (Promega) using a Vi-Tech luminometer. The ratio of Renilla to firefly luciferase expression was calculated for each of the triplicates.

miR-10b [2] = test: Luciferase reporter assay of miR-10b inhibition, MCF7 cells; format: cell-based; conditions: Homo sapiens, MCF7, 48 h
Description: as §1, §2, §3

mature miR-10b = test: RT-qPCR of mature miR-10b; format: cell-based, human; conditions: AGS gastric cell line; normalized to U6; vs DMSO
Description: (§4) Potential small molecule miRNA inhibitors were tested in MCF7 cells, a metastatic cell line (MM231) and an HCC cell line (HepG2) through RT-qPCR. Cells were seeded in 12-well plates 24 h before treatments at a confluence of 50-60%. They were treated at a concentration of 10 μM linifanib (positive control) or DMSO (negative control), and RNA was collected after 24 and 48 h. MicroRNA expression was tested using TaqMan microRNA assay (Applied Biosystems). The cDNA was synthesized using TaqMan Reverse Transcription Reagents kit (Applied Biosystems) and employed for quantitative RT-qPCR analysis together with TaqMan probes and SsoFastSupermix (Bio-rad). Primers and probes were purchased for hsa-miR-10b, hsa-pri-miR-10b, U6, and U48 snRNA that was used as an internal control.
(§5) To detect the levels of the precursor sequences, cDNA was synthesized using the SuperScript III cDNA kit (Invitrogen). Diluted cDNA was used for RT-qPCR analysis using iQ SYBR Green Supermix (Bio-Rad) with primers designed by in-house. Experiments were performed in triplicate; treated samples were compared to the DMSO-treated controls and normalized to the internal control. Relative expression levels were calculated using the 2-ΔCt method.

pre-miR-10b = test: RT-qPCR of precursor miR-10b; format: cell-based, human; conditions: AGS gastric cell line; normalized to U6; vs DMSO
Description: as §4, §5

[3] = Microsomal stability assay, human; format: in vitro ADME; conditions: pH 7.4; human liver microsomes; 1 μM test compound; unit printed in b356 only
Description: (§6) The liver microsomal incubation mixture was composed of liver microsomes (with a concentration of 0.5 mg microsomal protein/ml), the test compound (1 μM), MgCl2 (3 mM), EDTA (1 mM) in potassium phosphate buffer (100 mM, pH 7.4). Control substrates used were Midazolam and Ketanserin. The reaction was initiated with the addition of an NADPH regeneration solution (1.3 mM NADPH) and maintained at 37° C. with shaking. At five sequential time points ranging from 0 to 45 min, aliquots of the mixture (50 μL) were removed and quenched with acetonitrile (100 μL) containing an internal standard control (imipramine) Samples were analyzed after vortexing and centrifugation by liquid chromatography-mass spectrometry (LC-MS/MS). The in vitro t1/2 was then calculated and clearance followed literature.

[4] = Microsomal stability assay, rat; format: in vitro ADME; conditions: rat, liver microsomes, pH 7.4, rat liver microsomes; 1 μM test compound; unit printed in b356 only
Description: as §6

[5] = Microsomal stability assay, mouse; format: in vitro ADME; conditions: mouse, liver microsomes, pH 7.4, mouse liver microsomes; 1 μM test compound; unit printed in b356 only
Description: as §6

[6] = Table 5, MDA-MB-231, 10 μM compound, vs negative control (DMSO), mean of triplicate, read-out: n-fold increase in luciferase expression, Mean
[7] = Table 5, MDA-MB-231, 10 μM compound, vs negative control (DMSO), replicate #1, read-out: n-fold increase in luciferase expression, #1
[8] = Table 5, MDA-MB-231, 10 μM compound, vs negative control (DMSO), replicate #2, read-out: n-fold increase in luciferase expression, #2
[9] = Table 5, MDA-MB-231, 10 μM compound, vs negative control (DMSO), replicate #3, read-out: n-fold increase in luciferase expression, #3
[10] = Table 7, MDA-MB-231, second biological replicant, 10 μM compound, mean of triplicate, read-out: n-fold increase in luciferase expression, Mean
[11] = Table 7, MDA-MB-231, second biological replicant, 10 μM compound, replicate #1, read-out: n-fold increase in luciferase expression, #1
[12] = Table 7, MDA-MB-231, second biological replicant, 10 μM compound, replicate #2, read-out: n-fold increase in luciferase expression, #2
[13] = Table 7, MDA-MB-231, second biological replicant, 10 μM compound, replicate #3, read-out: n-fold increase in luciferase expression, #3
[14] = Table 3, MCF7, 10 μM compound, vs negative control (DMSO), mean of triplicate, read-out: n-fold increase in luciferase expression, Mean
[15] = Table 3, MCF7, 10 μM compound, vs negative control (DMSO), replicate #1, read-out: n-fold increase in luciferase expression, #1
[16] = Table 3, MCF7, 10 μM compound, vs negative control (DMSO), replicate #2, read-out: n-fold increase in luciferase expression, #2
[17] = Table 3, MCF7, 10 μM compound, vs negative control (DMSO), replicate #3, read-out: n-fold increase in luciferase expression, #3
[18] = Table 6, MCF7, second biological replicant, 10 μM compound, mean of triplicate, read-out: n-fold increase in luciferase expression, Mean
[19] = Table 6, MCF7, second biological replicant, 10 μM compound, replicate #1, read-out: n-fold increase in luciferase expression, #1
[20] = Table 6, MCF7, second biological replicant, 10 μM compound, replicate #2, read-out: n-fold increase in luciferase expression, #2
[21] = Table 6, MCF7, second biological replicant, 10 μM compound, replicate #3, read-out: n-fold increase in luciferase expression, #3

SMILES	fold induction at 10 µM (miR-10b [1]; [6])	fold induction at 10 µM (miR-10b [1]; [7])	fold induction at 10 µM (miR-10b [1]; [8])	fold induction at 10 µM (miR-10b [1]; [9])	fold induction at 10 µM (miR-10b [1]; [10])	fold induction at 10 µM (miR-10b [1]; [11])	fold induction at 10 µM (miR-10b [1]; [12])	fold induction at 10 µM (miR-10b [1]; [13])	fold induction at 10 µM (miR-10b [2]; [14])	fold induction at 10 µM (miR-10b [2]; [15])	fold induction at 10 µM (miR-10b [2]; [16])	fold induction at 10 µM (miR-10b [2]; [17])	fold induction at 10 µM (miR-10b [2]; [18])	fold induction at 10 µM (miR-10b [2]; [19])	fold induction at 10 µM (miR-10b [2]; [20])	fold induction at 10 µM (miR-10b [2]; [21])	further results
Cc1ccc(F)c(NC(=O)Nc2ccc(-c3cnc(N)nc3)cc2)c1 [Example 5, 1-(4-(2-aminopyrimidin-5-yl)phenyl)-3-(2-fluoro-5-methylphenyl)urea]	1.04	1.13	1.01	0.99	1.3	0.26	1.57	2.06	2.86	1.99	1.49	5.1	2.12	3.03	1.73	1.59	level of mature miR-10b (mature miR-10b): reduce the level of mature miR-10b; expression of pre-miR-10b (pre-miR-10b): increased expression of pre-miR-10b
Cc1ccc(F)c(NC(=O)Nc2ccc(-c3cccc4[nH]nc(N)c34)cc2)c1 [Example 10, 1-(4-(3-amino-1H-indazol-4-yl)phenyl)-3-(2-fluoro-5-methylphenyl)urea, reference compound]	1.87	1.51	1.14	2.95	1.97	2.99	2.24	0.69	2.5	2.74	2.52	2.25	17.9	25.6	14.6	13.4	CLint scaled at 1 μM [3]: 8.8 mL/min/kg; half-life at 1 μM [3]: 3.28 h; fold induction at 10 µM (miR-10b [2]; Table 4, MCF7, 10 μM compound, vs negative control (DMSO), mean of triplicate, read-out: n-fold increase in luciferase expression, Mean): 1.97; fold induction at 10 µM (miR-10b [2]; Table 4, MCF7, 10 μM compound, vs negative control (DMSO), replicate #1, read-out: n-fold increase in luciferase expression, #1): 2.56; fold induction at 10 µM (miR-10b [2]; Table 4, MCF7, 10 μM compound, vs negative control (DMSO), replicate #2, read-out: n-fold increase in luciferase expression, #2): 1.58; fold induction at 10 µM (miR-10b [2]; Table 4, MCF7, 10 μM compound, vs negative control (DMSO), replicate #3, read-out: n-fold increase in luciferase expression, #3): 1.78; CLint scaled at 1 μM [4]: 20.4 mL/min/kg; half-life at 1 μM [4]: 2.03 h; CLint scaled at 1 μM [5]: 86.5 mL/min/kg; half-life at 1 μM [5]: 1.05 h
